Reference: patent US11104648B2, “Pyrazole derivative” (Zhejiang Research Institute of Chemical Industry Co., Ltd., priority 2018, dated 2021)
Like-named read-outs stand apart in the source and are kept apart here.

Key:
Format in all cases: in vivo
[1] = test system: adult Tetranychus cinnabarinus; assay: Activity assay of adult Tetranychus cinnabarinus (whole-plant spray on bean seedlings); conditions: 48 h; for pest or weed control at 1.25 µg/mL: concentration 1.25 mg/L
Summary of the method: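 Whole plants sprayed after adult mite inoculation and initial census, using compound dissolved in DMF and made up with 1‰ Tween 80 water (DMF not above 10%). Mortality derived from survivor counts at 48 h after treatment. Each treatment run in triplicate.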

[2] = test system: Tetranychus cinnabarinus Nymphs; assay: Activity assay of Tetranychus cinnabarinus nymphs (spray on broad bean leaves); conditions: 48 h; for pest or weed control at 2 µg/mL: concentration 2 mg/L; for pest or weed control at 0.5 µg/mL: concentration 0.5 mg/L
Summary of the method: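 Mortality, judged as no response to gentle touch, was scored 48 h after spraying Tetranychus cinnabarinus nymphs on broad bean leaves (eggs from females removed after 24 h). Test solutions: DMF-dissolved compound, ≤10% DMF, in 1‰ Tween 80; 26±2° C., 70%–80% RH, 16 h light; triplicate, blank control.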

[3] = test system: Eggs of Tetranychus Cinnabarinus; assay: Activity assay of eggs of Tetranychus cinnabarinus (spray method, ovicidal); conditions: Tetranychus cinnabarinus; for pest or weed control at 2 µg/mL: concentration 2 mg/L
Summary of the method: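 Ovicidal spray test: compound dissolved in DMF, diluted with 1‰ Tween 80 (DMF ≤10%), sprayed on eggs laid during 24 h by females on broad bean leaves. Culture at 26±2° C, 70–80% RH, 16 h photoperiod; non-hatched eggs scored as dead when blank control hatched; three repeats.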

[4] = read-out: adult mite-killing activity
[5] = concentration 2.5 mg/L, read-out: adult mite-killing activity
[6] = read-out: nymph-killing activity
[7] = concentration 2.5 mg/L, read-out: nymph-killing activity
[8] = spray, read-out: ovicidal activity
[9] = concentration 5 mg/L, spray, non-incubated eggs counted as dead, read-out: ovicidal activity
[10] = adult mites, parallel determination, read-out: Death rate (%)
[11] = nymphs, parallel determination, read-out: Death rate (%)
[12] = eggs, parallel determination, read-out: Death rate (%)

| Compound | pest or weed control at 2.5 µg/mL [1, 5] | pest or weed control at 2.5 µg/mL [2, 7] | pest or weed control at 5 µg/mL [3, 9] | other results |
| --- | --- | --- | --- | --- |
| CCCCCOC(=O)OCO/C(=C(/C#N)c1ccc(C(C)(C)C)cc1)c1c(C)c(C)nn1CC [Compound 940] | ≥ 90% | ≥ 95% | ≥ 90% | pest or weed control at 1.25 µg/mL [1, 4]: ≥ 90%; pest or weed control at 2 µg/mL [2, 6]: ≥ 90%; pest or weed control at 2 µg/mL [3, 8]: ≥ 90% |
| Cc1cc(/C(OCOC(=O)C(F)(F)F)=C(\C#N)c2ccc(C(C)(C)C)cc2)n(C)n1 [Compound 13] | ≥ 90% | ≥ 95% | ≥ 90% | – |
| CCCCOC(=O)OC(C)O/C(=C(/C#N)c1ccc(C(C)(C)C)cc1)c1cc(C)nn1CC (stereo not drawn) [Compound 584] | ≥ 90% | ≥ 95% | ≥ 90% | – |
| Cc1cc(/C(OCOC(=O)OCCC(C)C)=C(\C#N)c2ccc(C(C)(C)C)cc2)n(C)n1 [Compound 458] | ≥ 90% | ≥ 95% | ≥ 90% | – |
| CCCCCOC(=O)OC(C)O/C(=C(/C#N)c1ccc(C(C)(C)C)cc1)c1c(Cl)c(C)nn1CC (stereo not drawn) [Compound 780] | ≥ 90% | ≥ 95% | ≥ 90% | pest or weed control at 1.25 µg/mL [1, 4]: ≥ 90%; pest or weed control at 2 µg/mL [2, 6]: ≥ 90%; pest or weed control at 2 µg/mL [3, 8]: ≥ 90% |
| C=CC(=O)OCO/C(=C(/C#N)c1ccc(C(C)(C)C)cc1)c1c(C)c(C)nn1CC [Compound 392] | ≥ 90% | ≥ 95% | ≥ 90% | – |
| CCn1nc(C)cc1/C(OC(C)OC(=O)OC(C)C)=C(\C#N)c1ccc(C(C)(C)C)cc1 (stereo not drawn) [Compound 582] | ≥ 90% | ≥ 95% | ≥ 90% | – |
| C=CC(=O)OC(C)O/C(=C(/C#N)c1ccc(C(C)(C)C)cc1)c1cc(C)nn1C (stereo not drawn) [Compound 42] | ≥ 90% | ≥ 95% | ≥ 90% | – |
| CCCC(=O)OCO/C(=C(/C#N)c1ccc(C(C)(C)C)cc1)c1c(C)c(C)nn1CC [Compound 378] | ≥ 90% | ≥ 95% | ≥ 90% | – |
| CCC(=O)OC(C)O/C(=C(/C#N)c1ccc(C(C)(C)C)cc1)c1c(C)c(C)nn1CC (stereo not drawn) [Compound 402] | ≥ 90% | ≥ 95% | ≥ 90% | pest or weed control at 1.25 µg/mL [1, 4]: ≥ 90%; pest or weed control at 2 µg/mL [2, 6]: ≥ 90%; pest or weed control at 2 µg/mL [3, 8]: ≥ 90% |
| Cc1nn(C)c(/C(OC(C)OC(=O)C(C)C)=C(\C#N)c2ccc(C(C)(C)C)cc2)c1C (stereo not drawn) [Compound 179] | ≥ 90% | ≥ 95% | ≥ 90% | – |
| Cc1nn(C)c(/C(OCOC(=O)C2CC2)=C(\C#N)c2ccc(C(C)(C)C)cc2)c1Cl [Compound 84] | ≥ 90% | ≥ 95% | ≥ 90% | – |
| CCn1nc(C)c(Cl)c1/C(OCOC(C)=O)=C(\C#N)c1ccc(C(C)(C)C)cc1 [Compound 301] | ≥ 90% | ≥ 95% | ≥ 90% | pest or weed control at 1.25 µg/mL [1, 10]: 90%; pest or weed control at 1.25 µg/mL [1, 4]: ≥ 90%; pest or weed control at 2 µg/mL [2, 6]: ≥ 90%; pest or weed control at 0.5 µg/mL [2, 11]: 90%; pest or weed control at 2 µg/mL [3, 8]: ≥ 90%; pest or weed control at 2 µg/mL [3, 12]: 95% |
| CCn1nc(C)c(Cl)c1/C(OC(C)OC(=O)CF)=C(\C#N)c1ccc(C(C)(C)C)cc1 (stereo not drawn) [Compound 337] | – | – | – | pest or weed control at 2.5 µg/mL [1, 4]: ≥ 90%; pest or weed control at 2.5 µg/mL [2, 6]: ≥ 95%; pest or weed control at 5 µg/mL ([3]; read-out: ovicidal activity): ≥ 90% |
| CCCCOC(=O)OC(C)O/C(=C(/C#N)c1ccc(C(C)(C)C)cc1)c1cc(C)nn1C (stereo not drawn) [Compound 488] | ≥ 90% | ≥ 95% | ≥ 90% | – |
| CCn1nc(C)cc1/C(OC(C)OC(=O)OCCCl)=C(\C#N)c1ccc(C(C)(C)C)cc1 (stereo not drawn) [Compound 590] | ≥ 90% | ≥ 95% | ≥ 90% | – |
| COC(=O)OCO/C(=C(/C#N)c1ccc(C(C)(C)C)cc1)c1cc(C)nn1C [Compound 451] | ≥ 90% | ≥ 95% | ≥ 90% | – |
| CCn1nc(C)c(C)c1/C(OC(C)OC(C)=O)=C(\C#N)c1ccc(C(C)(C)C)cc1 (stereo not drawn) [Compound 401] | ≥ 90% | ≥ 95% | ≥ 90% | pest or weed control at 1.25 µg/mL [1, 4]: ≥ 90%; pest or weed control at 2 µg/mL [2, 6]: ≥ 90%; pest or weed control at 2 µg/mL [3, 8]: ≥ 90% |
| CCn1nc(C)cc1/C(OCOC(=O)OCC(C)C)=C(\C#N)c1ccc(C(C)(C)C)cc1 [Compound 553] | ≥ 90% | ≥ 95% | ≥ 90% | pest or weed control at 1.25 µg/mL [1, 4]: ≥ 90%; pest or weed control at 2 µg/mL [2, 6]: ≥ 90%; pest or weed control at 2 µg/mL [3, 8]: ≥ 90% |
| CCC(C)(C)C(=O)OCO/C(=C(/C#N)c1ccc(C(C)(C)C)cc1)c1c(Cl)c(C)nn1C [Compound 91] | ≥ 90% | ≥ 95% | ≥ 90% | – |
| Cc1nn(C)c(/C(OCOC(=O)C2CC2)=C(\C#N)c2ccc(C(C)(C)C)cc2)c1C [Compound 159] | ≥ 90% | ≥ 95% | ≥ 90% | – |
| CCC(=O)OCO/C(=C(/C#N)c1ccc(C(C)(C)C)cc1)c1c(Cl)c(C)nn1CC [Compound 302] | ≥ 90% | ≥ 95% | ≥ 90% | pest or weed control at 1.25 µg/mL [1, 10]: 96%; pest or weed control at 1.25 µg/mL [1, 4]: ≥ 90%; pest or weed control at 2 µg/mL [2, 6]: ≥ 90%; pest or weed control at 0.5 µg/mL [2, 11]: 96%; pest or weed control at 2 µg/mL [3, 8]: ≥ 90%; pest or weed control at 2 µg/mL [3, 12]: 97% |
| CCCC(=O)OC(C)OC(=C(C#N)c1ccc(C(C)(C)C)cc1)c1ccccc1C(F)(F)F (stereo not drawn) [Compound 8-3, reference compound] | < 80% | < 80% | < 30% | pest or weed control at 1.25 µg/mL [1, 10]: 45%; pest or weed control at 1.25 µg/mL [1, 4]: < 50%; pest or weed control at 0.5 µg/mL [2, 6]: < 30%; pest or weed control at 0.5 µg/mL [2, 11]: 30%; pest or weed control at 2 µg/mL [3, 8]: 0%; pest or weed control at 2 µg/mL [3, 12]: 0% |
| CCC(=O)OCO/C(=C(/C#N)c1ccc(C(C)(C)C)cc1)c1cc(C)nn1C [Compound 2] | ≥ 90% | ≥ 95% | ≥ 90% | – |
| CCC(=O)OC(C)O/C(=C(/C#N)c1ccc(C(C)(C)C)cc1)c1c(Cl)c(C)nn1C (stereo not drawn) [Compound 102] | ≥ 90% | ≥ 95% | ≥ 90% | – |
| CCn1nc(C)c(C)c1/C(OCOC(=O)C(C)C)=C(\C#N)c1ccc(C(C)(C)C)cc1 [Compound 379] | ≥ 90% | ≥ 95% | ≥ 90% | – |
| CCCCOC(=O)OCO/C(=C(/C#N)c1ccc(C(C)(C)C)cc1)c1cc(C)nn1CC [Compound 552] | ≥ 90% | ≥ 95% | ≥ 90% | – |
| C=CC(=O)OCO/C(=C(/C#N)c1ccc(C(C)(C)C)cc1)c1c(C)c(C)nn1C [Compound 167] | ≥ 90% | ≥ 95% | ≥ 90% | – |
